Results reported in patent US8420574B2, “Plant growth enhancement with combinations of PESA and herbicides” (Valent BioSciences Corporation, priority 2009, dated 2013).

Tests used:
[1] = tested on: rice cv. Cheniere; test: Pouch assay with PESA salt seed treatment; root length; assay type: in vivo; details: 0 g PESA salt/100 lbs of seed, untreated 9.8
Method: Procedure for Treating Samples of Seed in the Laboratory
Seed was sieved with a screen of mesh size appropriate to remove broken seeds and small trash. Cracked or otherwise damaged seeds were removed. The seed was well mixed, and 50 g samples were weighed into small plastic trays. Seed treatment slurries were made by adding measured amounts of PESA or its salts and other AIs to sufficient water to bring them up to a standard volume, typically 2 ml. A fungicide (Maxim XL; Syngenta Agricultural Products, Greensboro, N.C.), a polymeric binder (CF-Clear; Becker-Underwood, Ames, Iowa), and a colorant (Color Coat Red; Becker-Underwood, Ames, Iowa) were also included in the slurry at label rates. A small aliquot of this slurry was applied to the seed using the Hege 11 coater (Wintersteiger, Salt Lake City, Utah) with a six-inch bowl at a slurry rate of 30 ounces per 100 lbs of seed. The slurry was deposited drop-wise on the spinning disk atomizer using a syringe.
After treatment, each seed sample was placed in plastic trays and dried at a room temperature for 20 to 60 minutes. The samples were then placed in small plastic bags. Samples were spot-checked using a water activity meter to make sure the water activity is below 0.7.
(§1) Seeds were placed in germination pouches consisting of germination paper hydrated with sterile water that was an insert in a gas-permeable 16×14 cm plastic pouch (CYG Pouch; Mega International, St. Paul, Minn.). In these examples, in pouch solution evaluation, PESA sodium salt or other active ingredients were added to the sterile water in the pouch. The pouches were arranged in a completely randomized block design in growth racks and placed in 19-liter polycarbonate food storage containers (Rubbermaid Commercial Products, Winchester, Va.). The sealed containers were held in an upright growth cabinet maintained at 25 C with a 12 hour light: 12 hour dark photoperiod. After 6 days, the containers were removed from the growth cabinet, and the lengths of the roots and shoot were measured.
Rice cv. Chemere was treated with PESA sodium salt prior to growing in the pouch. The treated seeds were then grown in the pouch in a dose-dependent series of trifluralin concentrations (Table 2). […] This confirms that seed treatment with the PESA salt protects or safens rice from the negative effects of trifluralin herbicide on root growth.

[2] = tested on: rice cv. Cheniere; test: Pouch assay, PESA salt and herbicide added to the pouch solution; root and shoot length; assay type: in vivo; details: for Shoot Length / Root Length: 0 ppm PESA salt; for Shoot Length: untreated 3.2; for Root Length: untreated 9.2
Method: Alternatively, PESA salt and herbicides may be added separately to the sterile water in the growth pouch.
as §1

CCCN(CCC)c1c([N+](=O)[O-])cc(C(F)(F)F)cc1[N+](=O)[O-] [Trifluralin, trifluralin, reference compound]
Root Length ([1]; 50 ppm trifluralin): 0.9 cm
Root Length ([1]; 100 ppm trifluralin): 0.1 cm
Shoot Length ([2]; 1 ppm trifluralin): 3.7 cm
Root Length ([2]; 1 ppm trifluralin): 9.8 cm
Shoot Length ([2]; 10 ppm trifluralin): 3.3 cm
Root Length ([2]; 10 ppm trifluralin): 8.3 cm
root length reduced by ([2]; 100 ppm trifluralin): 90%
Shoot Length ([2]; 100 ppm trifluralin): 2.2 cm
Root Length ([2]; 100 ppm trifluralin): 0.9 cm
